# Laboratory results reported in PMC10496295, “In vitro cytotoxic effect of stigmasterol derivatives against breast cancer cells” (BMC Complementary Medicine and Therapies, 2023).
# Read-outs that look alike come from different tables or passages of the source.
# What was measured:
# [1] = tested on: MCF-12 A non-tumorigenic breast epithelial cell line; assay: resazurin cytotoxicity assay, MCF-12 A cells; format: cell-based; conditions: Homo sapiens
# [2] = tested on: MCF-7 hormone receptor-positive breast cancer cell line; assay: resazurin cytotoxicity assay, MCF-7 cells; format: cell-based; conditions: for SI (selectivity index), MCF-7: EC50 against MCF12A cells ÷ EC50 against MCF-7 cells; for EC50: Homo sapiens
# [3] = tested on: HCC70 triple negative breast cancer cell line; assay: resazurin cytotoxicity assay, HCC70 cells; format: cell-based; conditions: for SI (selectivity index), HCC70: EC50 against MCF12A cells ÷ EC50 against HCC70 cells; for EC50: Homo sapiens
# [4] = tested on: human breast cancer MCF-7 cell line; design: method as in PMID 33839518; conditions: read-out: IC50 against MCF-7 cell line; cited from earlier work
# [5] = tested on: human gastric cancer cell line SNU-1; conditions: read-out: IC50, SNU-1 proliferation; cited from earlier work
# [6] = tested on: human ovarian cancer cells ES2; design: method as in PMID 32481565; conditions: treatment concentration 20 µg/mL; cited from earlier work
# [7] = tested on: human ovarian cancer cells OV90; design: method as in PMID 32481565; conditions: treatment concentration 20 µg/mL; cited from earlier work
# [8] = tested on: oxidative burst of the whole blood; design: method as in PMID 23136063; conditions: cited from earlier work
# [9] = tested on: U937 human monocytic cell line; design: method as in PMID 20828195; conditions: cited from earlier work; for reduction in cell viability / level of cell death compared to the untreated control: p < 0.05; for level of cell death compared to the untreated control: FDA/EtBr staining
# [10] = MCF-12A, 96 h, read-out: EC50 and Standard deviation, MCF-12 A, MCF-12 A cells, 96 h treatment, resazurin assay
# [11] = MCF7, 96 h, read-out: EC50 and Standard deviation, MCF-7, MCF-7 cells, 96 h treatment, resazurin assay
# [12] = HCC70, 96 h, read-out: EC50 and Standard deviation, HCC70, HCC70 cells, 96 h treatment, resazurin assay
# [13] = MCF-12 A cells, 96 h treatment, resazurin assay, read-out: EC50 and Standard deviation, MCF-12 A
# [14] = MCF7, MCF-7 cells, 96 h treatment, resazurin assay, read-out: EC50 and Standard deviation, MCF-7
# [15] = HCC70 cells, 96 h treatment, resazurin assay, read-out: EC50 and Standard deviation, HCC70
compound,measurement,setting,value
"CC[C@@]1(O)C(=O)OCc2c1cc1n(c2=O)Cc2cc3ccccc3nc2-1 [Camptothecin, reference compound]",EC50,"[1]; MCF-12 A cells, 96 h, resazurin assay, positive control, row unit nM, read-out: EC50 and Standard deviation, MCF-12 A",104.2 ± 1.03 nM
same,"SI (selectivity index), MCF-7",[2],1.00
same,EC50,"[2]; MCF7, MCF-7 cells, 96 h, resazurin assay, positive control, row unit nM, read-out: EC50 and Standard deviation, MCF-7",104 ± 9.92 nM
same,"SI (selectivity index), HCC70",[3],1.25
same,EC50,"[3]; HCC70 cells, 96 h, resazurin assay, positive control, row unit nM, read-out: EC50 and Standard deviation, HCC70",83.2 ± 1.08 nM
"CC[C@H](C=C[C@@H](C)[C@H]1CC[C@H]2[C@@H]3CC=C4C[C@@H](O)CC[C@]4(C)[C@H]3CC[C@]12C)C(C)C [Compound 1, stigmasta-5,22-dien-3β-ol]",EC50,[1]; [10],> 250000 nM
same,EC50,[2]; [11],> 250000 nM
same,EC50,[3]; [12],> 250000 nM
same,IC50,[4],0.162 µM
same,IC50,[5],15 µM
same,reduction of growth of ES2 cells,[6],50%
same,reduction of growth of OV90 cells,[7],50%
"CC[C@H](/C=C/[C@@H](C)C1CCC2C3CC=C4C[C@@H](OC(C)=O)CC[C@]4(C)C3CC[C@@]21C)C(C)C (stereo partly drawn) [Compound 2, Stigmasterol acetate]",EC50,[1]; [10],> 250000 nM
same,EC50,[2]; [11],> 250000 nM
same,EC50,[3]; [12],> 250000 nM
same,melting point,,139 to 141 °C
"CC[C@H](C=C[C@@H](C)[C@H]1CC[C@H]2[C@@H]3C(=O)C=C4CC(=O)CC[C@]4(C)[C@H]3CC[C@]12C)C(C)C [Compound 3, Stigmasta-5,22-dien-3,7-dione]",EC50,[1]; [13],30200 ± 1240 nM
same,"SI (selectivity index), MCF-7",[2],0.70
same,EC50,[2]; [14],42800 ± 1320 nM
same,"SI (selectivity index), HCC70",[3],0.45
same,EC50,[3]; [15],67700 ± 1260 nM
same,melting point,,152 to 155 °C
same,IC50,[8],15.6 ± 2.1 µM
"CC[C@H](C=C[C@@H](C)[C@H]1CC[C@H]2[C@@H]3CC4OC45C[C@@H](O)CC[C@]5(C)[C@H]3CC[C@]12C)C(C)C (stereo partly drawn) [Compound 4, 5,6-Epoxystigmast-22-en-3β-ol]",EC50,[1]; [13],47000 ± 1180 nM
same,EC50,[2]; [14],21900 ± 1320 nM
same,"SI (selectivity index), HCC70",[3],0.28
same,EC50,[3]; [15],165700 ± 1300 nM
same,melting point,,142 to 145 °C
"CC[C@@H](C(C)C)C(O)C(O)[C@@H](C)C1CCC2C3CC4OC45C[C@@H](O)CC[C@]5(C)C3CC[C@@]21C (stereo partly drawn) [Compound 5, 5,6-Epoxystigmasta-3β,22,23-triol]",EC50,[1]; [13],30200 ± 1280 nM
same,"SI (selectivity index), MCF-7",[2],0.69
same,EC50,[2]; [14],44000 ± 1400 nM
same,"SI (selectivity index), HCC70",[3],0.90
same,EC50,[3]; [15],33700 ± 1330 nM
same,reduction in cell viability,"[9]; U937 cells, 60 and 120 µM",significantly reduced cell viability
same,level of cell death compared to the untreated control,[9]; U937 cells,significant
same,mode of cell death,"[9]; U937 cells, staining with Hoechst 33,342",apoptosis
"CC[C@@H](C(C)C)C(O)C(O)[C@@H](C)[C@H]1CC[C@H]2[C@@H]3CC(O)C4(O)C[C@@H](O)CC[C@]4(C)[C@H]3CC[C@]12C (stereo partly drawn) [Compound 6, Stigmastane-3β,5,6,22,23-pentol]",EC50,[1]; [13],22600 ± 1220 nM
same,"SI (selectivity index), MCF-7",[2],0.51
same,EC50,[2]; [14],44100 ± 1400 nM
same,EC50,[3]; [15],16800 ± 1170 nM
same,melting point,,201 to 204 °C
"CC[C@@H](C(C)C)C(O)C(O)[C@@H](C)[C@H]1CC[C@H]2[C@@H]3C(=O)C=C4CC(=O)CC[C@]4(C)[C@H]3CC[C@]12C (stereo partly drawn) [Compound 7, Stigmasta-5-en-3,7-dion-22,23-diol]",EC50,[1]; [13],31600 ± 1120 nM
same,"SI (selectivity index), MCF-7",[2],1.36
same,EC50,[2]; [14],23200 ± 1080 nM
same,"SI (selectivity index), HCC70",[3],0.19
same,EC50,[3]; [15],170100 ± 1180 nM
same,melting point,,137 to 140 °C
"CC[C@@H](C(C)C)C(O)C(O)[C@@H](C)C1CCC2C3C(=O)C(O)C4(O)CC(=O)CC[C@]4(C)C3CC[C@@]21C (stereo partly drawn) [Compound 8, Stigmasta-3,7-dion-5,6,22,23-ol]",EC50,[1]; [13],> 250000 nM
same,EC50,[2]; [14],> 250000 nM
same,EC50,[3]; [15],53200 ± 1060 nM
same,melting point,,183 to 187 °C
"CC[C@@H](C(C)C)C(O)C(O)[C@@H](C)[C@H]1CC[C@H]2[C@@H]3CC=C4C[C@@H](O)CC[C@]4(C)[C@H]3CC[C@]12C (stereo partly drawn) [Compound 9, Stigmast-5-ene-3β,22,23-triol]",EC50,[1]; [13],51800 ± 1130 nM
same,EC50,[2]; [14],22900 ± 1090 nM
same,"SI (selectivity index), HCC70",[3],1.16
same,EC50,[3]; [15],44500 ± 1130 nM
same,reduction in cell viability,"[9]; U937 cells, 30, 60 and 120 µM",significant reduction
same,level of cell death compared to the untreated control,[9]; U937 cells,significant
same,cell viability,"[9]; U937 cells, highest concentration 120 µM",52.3%
"N.N.[Cl][Pt][Cl] [cisplatin, reference compound]",IC50,[4],13.2 µM
"CC(C)Cc1ccc(C(C)C(=O)O)cc1 (stereo not drawn) [ibuprofen, reference compound]",IC50,[8],12.1 µM
